From patent US5478812A, “Chromanol glycoside and method for production thereof” (CCI Corporation, priority 1993, dated 1995)
In brackets after ≈: the same amount, converted by molar mass. Like-named read-outs stand apart in the source and are kept apart here.

Columns and labels:
thermal stability = format: physicochemical; details: 5 mM solution in water/ethanol 1:3 v/v, read-out: Residual amounts (%) after 100 hours
Text: The chromanol glycoside obtained in Examples 1 to 5 [6-hydroxy-2,5,7,8-tetramethyl chroman-2-methyl-α-D-glucopyranoside represented by the aforementioned formula (4)], the chromanol glycoside obtained in Examples 6 to 8 [6-hydroxy-2,5,7,8-tetramethyl chroman-2-ethyl-α-D-glucopyranoside represented by the aforementioned formula (7)], the chromanol glycoside obtained in Examples 4 and 5 [6-hydroxy-2,5,7,8-tetramethyl chroman-2methyl-α-D-maltopyranoside represented by the aforementioned formula (5)], and the chromanol glycoside obtained in Example 8 [6-hydroxy-2,5,7,8-tetramethyl chroman-2-ethyl-α-D-maltopyranoside represented by the aforementioned formula (8)]were tested for thermal stability. Specifically, this test was performed by incubating a 5 mM chromanol glycoside solution (water/ethanol, 1:3 v/v) under varying temperature conditions. At regular intervals, aliquots of the reaction mixture were withdrawn and the residual amounts of chromanol glycoside were measured by HPLC. For the purpose of comparison, the 2-substituted alcohols represented by the aforementioned formulas (3) and (6), α-tocopherol, and Trolox were similarly tested.
It is clearly noted from these test results that the conversion of 2-substituted alcohols into corresponding glycosides enhances thermal stability.

[1] = hydroperoxidation of methyl linoleate via radical chain reaction in hexane/isopropyl alcohol; format: biochemical; details: 0.1 μmol antioxidant in 1.1 ml hexane/isopropyl alcohol 1:1; 37 °C; oil-soluble radical generator; in words
Text: Antioxidant activity on the chromanol glycoside obtained in Examples 1 to 5 [6-hydroxy-2,5,7,8-tetramethyl chroman-2-methyl-α-D-glucopyranoside represented by the aforementioned formula (4)], the chromanol glycoside obtained in Examples 6 to 8 [6-hydroxy-2,5,7,8-tetramethyl chroman-2-ethyl-α-D-glucopyranoside represented by the aforementioned formula (7)], the chromanol glycoside obtained in Examples 4 and 5 [6-hydroxy-2,5,7,8-tetramethyl chroman-2-methyl-α-D-maltopyranoside represented by the aforementioned formula (5)], and the chromanol glycoside obtained in Example 8 [6-hydroxy-2,5,7,8-tetramethyl chroman-2-ethyl-α-D-maltopyranoside represented by the aforementioned formula (8)] was investigated by measuring the hydroperoxidation of methyl linoleate via radical chain reaction. Specifically, this test was performed by incubating 132 μmol of methyl linoleate, 16.5 μmol of an oil-soluble radical generator [2,2'-azo-bis(2,4-dimethyl valeronitrile)], 0.1 μmol of antioxidant in 1.1 ml of a hexane/isopropyl alcohol (1:1 v/v), and the mixture was incubated at 37° C. At regular intervals, aliquots of the reaction mixture were withdrawn and the amount of methyl linoleate hydroperoxides were measured by HPLC. […] EXAMPLE 10

[2] = antioxidant activity using liposomal membranes (phosphatidylcholine hydroperoxides); format: biochemical; details: 0.1 μmol antioxidant in 1.1 ml 10 mM tris-HCl buffer pH 7.4; water-soluble radical generator; in words
Text: Antioxidant activity on the chromanol glycoside obtained in Examples 1 to 5 [6-hydroxy-2,5,7,8-tetramethyl chroman-2-methyl-α-D-glucopyranoside represented by the aforementioned formula (4)[, the chromanol glycoside obtained in Examples 6 to 8 [6-hydroxy-2,5,7,8-tetramethyl chroman-2-ethyl-α-D-glucopyranoside represented by the aforementioned formula (7)], the chromanol glycoside obtained in Examples 4 and 5 [6-hydroxy-2,5,7,8-tetramethyl chroman-2-methyl-α-D-maltopyranoside represented by the aforementioned formula (5)], and the chromanol glycoside obtained in Example 8 [6-hydroxy-2,5,7,8-tetramethyl chroman-2-ethyl-α-D-malto-pyranoside represented by the aforementioned formula (8)] was investigated by using a liposonal membranes. Specifically, this test was performed by adjusting a reaction solution consisting of 5.5 μmol of a multilameller liposomes of egg yolk phosphatidylcholine, 16.5 μmol of a water-soluble radical generator [2,2'-azo-bis(2-amidinopropane) dihydrochloride], and 0.1 μmol of antioxidant in 1.1 ml of a 10 mM tris-HCl buffer (pH 7.4). At regular intervals, aliquots of the reaction mixture were withdrawn and the amount of phosphatidylcholine hydroperoxides were measured by HPLC.

pH stability = format: physicochemical; details: 5.5 mM, buffer/ethanol 5:1 v/v; for remaining at 100 h, 5500 µM: read-out: Residual amounts (%) after 100 hours; for Residual amounts (%) after 100 hours: 5500 µM
Text: The chromanol glycoside obtained in Examples 1 to 5 [6-hydroxy-2,5,7,8-tetramethyl chroman-2-methyl-α-D-glucopyranoside represented by the aforementioned formula (4)], the chromanol glycoside obtained in Examples 6 to 8 [6-hydroxy-2,5,7,8-tetramethyl chroman-2-ethyl-α-D-glucopyranoside represented by the aforementioned formula (7)], the chromanol glycoside obtained in Examples 4 and 5 [6-hydroxy-2,5,7,8-tetramethyl chroman-2-methyl-α-D-maltopyranoside represented by the aforementioned formula (5)], and the chromanol glycoside obtained in Example 8 [6 -hydroxy-2,5,7,8-tetramethyl chroman-2-ethyl-α-D-maltopyranoside represented by the aforementioned formula (8)] were tested for pH stability. This test was specifically performed by incubating a 5.5 mM chromanol glycoside solution (buffer/ethanol, 5:1 v/v) having a varying pH value. At regular intervals, aliquots of the reaction mixture were withdrawn and the residual amounts of chromanol glycoside were measured by HPC. For the purpose of comparison, the 2-substituted alcohols represented by the aforementioned formulas (3) and (6) and Trolox were similarly tested.
It is clearly noted from the test results that the conversion of 2-substituted alcohols into respective glycosides enhances pH stability. The buffer used for the test were 100 mM acetate buffer of pH 5.5, 100 mM phosphate buffer of pH 7.0, and 100 mM tris-HCl buffer of pH 8,5.

solubility in water = format: physicochemical; details: 25 °C, constant stirring at 200 rpm, HPLC; for solubility: water, read-out: solubility in water (amounts of sample dissolved in 1 ml of water)
Text: The chromanol glycoside obtained in Examples 1 to 5 [6-hydroxy-2,5,7,8-tetramethyl chroman-2-methyl-α-D-glucopyranoside represented by the aforementioned formula (4)], the chromanol glycoside obtained in Examples 6 to 8 [6-hydroxy-2,5,7,8-tetramethyl chroman-2-ethyl-α-D-glucopyranoside represented by the aforementioned formula (7)], the chromanol glycoside obtained in Examples 4 and 5 [6-hydroxy-2,5,7,8-tetramethyl chroman-2-methyl-α-D-maltopyranoside represented by the aforementioned formula (5)], and the chromanol glycoside obtained in Example 8 [6-hydroxy-2,5,7,8-tetramethyl chroman-2-ethyl-α-D-maltopyranoside represented by the aforementioned formula (8)] were tested for solubility in water. Specifically, this test was performed by adding an excess amount of a given chromanol glycoside to 1 ml of water. The reaction mixture was incubated at 25° C. for […] with constant stirring at 200 rpm. After 100 hours, the reaction mixture was transferred into a membrane filter (produced by Nihon Millipore Ltd. and marketed under trademark designation of "HPLC Sample Prep C02-LG") and insoluble substances were removed by centrifugation (4,100×g, 10 minutes, 20° C.). The filtered solution was subjected to HPLC to determine the amount of chromanol glycoside remaining in the aqueous solution. For the purpose of comparison, the 2-substituted alcohols represented by the aforementioned formulas (3) and […] and Trolox were similarly tested.
The numerals given in the tables represent the amounts of sample dissolved in 1 ml of water.

[3] = background statement, in words; cited from earlier work
[4] = acetate buffer/ethanol 5:1, pH 5.5, pH 5.5 (100 mM acetate buffer)
[5] = phosphate buffer/ethanol 5:1, pH 7, pH 7.0 (100 mM phosphate buffer)
[6] = tris-hcl buffer/ethanol 5:1, pH 8.5, pH 8.5 (100 mM tris-HCl buffer)

Cc1c(C)c2c(c(C)c1O)CCC(C)(CCCC(C)CCCC(C)CCCC(C)C)O2 (stereo not drawn) [α-Tocopherol, reference compound]
remaining at 100 h, 5000 µM (thermal stability; water/ethanol 1:3, 50 °C): 85% | remaining at 100 h, 5000 µM (thermal stability; water/ethanol 1:3, 60 °C): 79% | remaining at 100 h, 5000 µM (thermal stability; water/ethanol 1:3, 70 °C): 30%

Cc1c(C)c2c(c(C)c1O)CCC(C)(CO[C@H]1O[C@H](CO)[C@@H](O)[C@H](O)[C@H]1O)O2 (stereo partly drawn) [formula (4), 6-hydroxy-2,5,7,8-tetramethyl chroman-2-methyl-α-D-glucopyranoside]
antioxidant activity (methyl linoleate hydroperoxides) [1]: excel 3,5-tert-butyl-4-hydroxytoluene and equal α-tocopherol | antioxidant activity (phosphatidylcholine hydroperoxides) [2]: more effective antioxidants than ascorbic acid | remaining at 100 h, 5500 µM (pH stability; [4]): 91% | Residual amounts (%) after 100 hours (pH stability; pH 5.5 (100 mM acetate buffer), listed as formula (4) of Example 2, 6000 min): 85% | Residual amounts (%) after 100 hours (pH stability; pH 5.5 (100 mM acetate buffer), listed as formula (4) of Example 3, 6000 min): 89% | Residual amounts (%) after 100 hours (pH stability; pH 5.5 (100 mM acetate buffer), listed as formula (4) of Example 4, 6000 min): 84% | Residual amounts (%) after 100 hours (pH stability; pH 5.5 (100 mM acetate buffer), listed as formula (4) of Example 5, 6000 min): 88% | Residual amounts (%) after 100 hours (pH stability; pH 7.0 (100 mM phosphate buffer), listed as formula (4) of Example 2, 6000 min): 42% | Residual amounts (%) after 100 hours (pH stability; pH 7.0 (100 mM phosphate buffer), listed as formula (4) of Example 3, 6000 min): 43% | Residual amounts (%) after 100 hours (pH stability; pH 7.0 (100 mM phosphate buffer), listed as formula (4) of Example 4, 6000 min): 44% | Residual amounts (%) after 100 hours (pH stability; pH 7.0 (100 mM phosphate buffer), listed as formula (4) of Example 5, 6000 min): 43% | Residual amounts (%) after 100 hours (pH stability; pH 8.5 (100 mM tris-HCl buffer), listed as formula (4) of Example 2, 6000 min): 19% | Residual amounts (%) after 100 hours (pH stability; pH 8.5 (100 mM tris-HCl buffer), listed as formula (4) of Example 4, 6000 min): 19% | Residual amounts (%) after 100 hours (pH stability; pH 8.5 (100 mM tris-HCl buffer), listed as formula (4) of Example 5, 6000 min): 21% | remaining at 100 h, 5500 µM (pH stability; [5]): 41% | remaining at 100 h, 5500 µM (pH stability; [6]): 20% | solubility in water (amounts of sample dissolved in 1 ml of water) (solubility in water; listed as formula (4) of Example 3): About 1000 mg/ml | solubility in water (amounts of sample dissolved in 1 ml of water) (solubility in water; listed as formula (4) of Example 4): About 1000 mg/ml | solubility in water (amounts of sample dissolved in 1 ml of water) (solubility in water; listed as formula (4) of Example 5): About 1000 mg/ml | solubility (solubility in water): ~1000 mg/mL

Cc1c(C)c2c(c(C)c1O)CCC(C)(C(=O)O)O2 (stereo not shown) [Trolox, 6-hydroxy-2,5,7,8-tetramethyl chroman-2-carboxylic acid, reference compound]
remaining at 100 h, 5500 µM (pH stability; [4]): 75% | remaining at 100 h, 5500 µM (pH stability; [5]): 35% | remaining at 100 h, 5500 µM (pH stability; [6]): 13% | solubility (solubility in water): 0.2 mg/mL (≈ 799 µM) | solubility in water [3]: extremely low solubility in water
